The record followed here is US20130336950A1, “MATERIAL COMBINATION FOR TREATING INFLAMMATORY OR INFECTIOUS DISEASES” (priority 2010, published 2013).

“Also recorded” adds a separate entry of the source. Ends that are not written are not given here.

The subject of one series is Bacteroides vulgatus. Put plainly: antimicrobial radial diffusion assay, Bacteroides vulgatus. Conditions: 48 h. It is filed as cell-based. On the procedure:
(§1) During execution of the assay in 10 mM sodium phosphate with 0.3 mg/ml of trypticase soya broth (TSB) and 1% (w/v) agarose with low EEO (Sigma-Aldrich), incubation took place in anaerobic conditions with antimicrobial peptides and 0-2 mM DTT. The presence of a reducing environment was controlled by adding the redox indicator resazurin. After 48-h incubation, the diameter of the inhibition zones was measured and was evaluated statistically using GraphPad Prism 4.03 and Student's t-test.
(§2) Small concentrations of the reducing agent dithiothreitol (DTT) were added to the assay medium, whereas medium without DTT served as control.

In series [1] the test system is Bifidobacterium adolescentis, Bif. breve, Bif. longum and Bif. bifidum. Put plainly: radial diffusion assay, oxidized and reduced peptide against Bifidobacterium spp. Conditions: oxidized or reduced peptide 1.5 μg, anaerobic, medium without DTT, 48 h. Type of series: cell-based. As for the experimental part:
as §1
(§3) (FIG. 3A). […] Furthermore, the same assay was carried out with the Gram-positive strains Lactobacillus acidophilus and L. fermentum, and with the Gram-negative strain Bacteroides vulgatus and the facultatively anaerobic strain Escherichia coli K12 (FIG. 3B).

The subject of series [2] is Lactobacillus acidophilus and L. fermentum. Put plainly: radial diffusion assay, Lactobacilli. It is filed as cell-based, Lactobacillus spp. Conditions: oxidized or reduced peptide 3 μg, medium without DTT, 48 h. As for the experimental part:
as §1, §3

A further series deals with Escherichia coli K12. As to the kind of experiment: radial diffusion assay, Escherichia coli K12. Conditions: oxidized or reduced peptide 1.5 μg, medium without DTT, 48 h. Type of series: cell-based. On the procedure:
as §1, §3

The subject of another series is Candida albicans. Put plainly: flow cytometry assay, depolarized yeasts, clinical Candida isolates. Type of series: cell-based. Conditions: 40 μg/ml, 90-minute incubation, 5 clinical isolates. As for the experimental part: (A) 1.5 μg oxidized and reduced hBD-1 was incubated with Bifidobacterium spp., Lactobacillus spp., Bacteroides vulgatus (B) and Escherichia coli. For Lactobacilli, the amount of defensin was 3 μg. The formation of inhibition zones was investigated after 48 hours, representative radial diffusion assays from 3 experiments are shown. […] The proportion of depolarized yeasts after 90-minute incubation with reduced or oxidized hBD-1, measured with a flow cytometry assay, is shown. hBD-1 red=reduced hBD-1, hBD-1 ox=oxidized hBD-1. The mean values+standard deviation of two experiments, carried out in each case in duplicate, are shown, (D) cysteine amino acids in the hBD-1 peptide were exchanged for alanine or serine and the hydrophobicity of the hBD-1 variants was analyzed by RP-HPLC. (E) flow cytometry assay for detecting bacterial membrane depolarization of Bifidobacterium adolescentis after incubation with reduced or oxidized hBD-1. Squares show an incubation time of 30 minutes, circles a time of 90 minutes. […] Fixed bacteria were analyzed by transmission microscopy, magnification bars=200 nm.
Flow-cytometry antimicrobial assay, in which the membrane depolarization of the bacteria was measured, was carried out as described in: Nuding, S., et al., “Antibacterial activity of human defensins on anaerobic intestinal bacterial species: a major role of HBD-3.” Microbes. […]

Series [3] concerns Bifidobacterium adolescentis. Put plainly: flow-cytometry antimicrobial assay, bacterial membrane depolarization. Type of series: cell-based. As for the experimental part:
Flow-cytometry antimicrobial assay, in which the membrane depolarization of the bacteria was measured, was carried out as described in: Nuding, S., et al., “Antibacterial activity of human defensins on anaerobic intestinal bacterial species: a major role of HBD-3.” Microbes. Infect. 11 (3), 384-393 (2009).
In order to investigate whether the observed inhibition of growth of Gram-positive anaerobes is bacteriostatic or bactericidal, flow-cytometry antimicrobial assays were carried out with bacterial membrane depolarization as the reading system. […] This pointed to a rapid bactericidal effect of the linear hBD-1.

Series [4] deals with Bifidobacterium adolescentis Ni3,29c. As to the kind of experiment: transmission electron microscopy of the bacteria. Conditions: 200 μg/ml, 2 hours, 37° C., anaerobic. Type of series: cell-based. On the procedure: For transmission electron microscopy of the bacteria, approx. 2×10^8 CFU (colony forming units) of Bifidobacterium adolescentis Ni3,29c were incubated anaerobically for two hours at 37° C. in the absence or in the presence of 200 μg/ml synthetic defensin. The bacteria were centrifuged, fixed in prewarmed Karnovsky's solution and stored at 4° C. for 24 hours. After centrifugation, the pellet was embedded in 3.5% agarose at 37° C., coagulated at room temperature, cut into small blocks and fixed in Karnovsky's solution again. The post-fixing was based on 1.0% osmium tetroxide with 1.5% potassium ferrocyanide in 0.1 M cacodylate buffer. After embedding in glycidyl ether, the blocks were cut with an ultramicrotome (Ultracut, Reichert, Vienna, Austria). Ultrathin sections (30 nm) were applied on copper grids and analyzed with a Zeiss LIBRA 120 transmission electron microscope (Carl Zeiss, Oberkochen, Germany) at 120 kV.

Series [5] concerns Bifidobacterium adolescentis. Put plainly: antimicrobial radial diffusion assay, Bif. adolescentis, with and without DTT. Type of series: cell-based. Conditions: for antimicrobial activity (diameter of the inhibition zones): anaerobic, 48 h. On the procedure: as §1, §2
The target in a further series is T1, human thioredoxin (Homo sapiens, UniProt P10599).
T1 sequence (P10599 1-105): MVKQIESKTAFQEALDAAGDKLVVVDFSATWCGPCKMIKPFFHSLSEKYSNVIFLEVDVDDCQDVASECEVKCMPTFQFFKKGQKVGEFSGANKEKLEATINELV
Put plainly: thioredoxin reductase assay (reduction of hBD-1, RP-HPLC). It is filed as biochemical. Conditions: 10 μM hBD-1, 0.5-1.5 μM thioredoxin, 100 nM thioredoxin reductase, 0.8 mM NADPH, 30 minutes, 37° C. On the procedure: FIG. 4 Thioredoxin (TRX) co-localized with hBD-1 and is capable of catalyzing the reduction of hBD-1. (A) immuno-histochemistry staining of hBD-1 and thioredoxin of human colon sections. Magnification bars=100 μm. (B) 10 μM oxidized hBD-1 was incubated with or without 0.5, 1.0 and 1.5 μM human thioredoxin and 100 nM rat thioredoxin reductase for 30 minutes at 37° C. in 0.10 M potassium phosphate-2 mM EDTA, pH 7.0 buffer and 0.8 mM NADPH. Incubation assays were analyzed by RP-HPLC and the transformation of oxidized to reduced hBD-1 was observed. hBD-1 ox=oxidized hBD-1, hBD-1 red=reduced hBD-1. […] Formation of inhibition zones was investigated after incubation for 48 hours, representative assays are shown.
The thioredoxin reductase assay was carried out as follows: For this, oxidized hBD-1 was incubated with 0.5-1.5 μM thioredoxin or protein disulfide-isomerase in the presence of 100 nM thioredoxin reductase and 0.8 mM NADPH in 0.1 M […] phosphate buffer-2 mM EDTA. The incubation mixtures were analyzed by RP-HPLC, with which the transformation of oxidized to reduced hBD-1 peptide could be observed.

A short description of series [6]: RP-HPLC analysis of hydrophobicity. Type of series: physicochemical. Conditions: water/acetonitrile gradient; reduced hBD-1 vs oxidized hBD-1, variants vs reduced hBD-1. An excerpt:
For the high-performance liquid chromatography (HPLC) analysis, a system of the Agilent 1200 series and a Vydac 218TP-C18 column were used, using a water/acetonitrile gradient with trifluoroacetic acid as ion-pair reagent.

Where [7] appears, read: oxidized or reduced peptide 1.5 μg, medium without DTT.
Where [8] appears, read: 30 minutes of incubation, 60 μg/μl.
The mark [9] stands for this setting: reducing conditions (DTT added, 1 mM or 2 mM).
The mark [10] stands for this setting: with or without DTT (1 mM or 2 mM), 0.5-2.0 μg peptide.

Take “oxidized hBD-1: fully oxidized hBD-1 possessing all disulfide bridges (DHYNCVSSGGQCLYSACPIFTKIQGTCYRGKAKCCK; disulfide (positions not given here); also: three disulfides, pairing not given here)”: the “antimicrobial activity (inhibition zones)” value was “no effect” in the series on Bacteroides vulgatus (setting [7]), “did not show any antimicrobial activity” in [1], “no effect at all” in series [2] and “antimicrobial activity; also recorded: sensitive” in the series on Escherichia coli K12. Also, the “antifungal activity (proportion of depolarized yeasts)” value in the series on Candida albicans is “no action and not”. The “membrane depolarization of the bacteria” value in series [3] (setting [8]) and in series [3] (90 minutes of incubation) was “no significant depolarization” throughout. Besides, the “morphology of the bacterial cells” value in series [4] is listed as “did not show morphological damage of any kind”.

In the case of lysozyme [reference compound], in [5] (setting [9]), the “antimicrobial activity (diameter of the inhibition zones)” value is on record as “slightly reduced antimicrobial activity”.

For “human beta-defensin 1 (DHYNCVSSGGQCLYSACPIFTKIQGTCYRGKAKCCK; disulfide (positions not given here); also: three disulfides, pairing not given here) [hBD-1, synthetic human beta-defensin 1, antimicrobial peptide with three disulfide bridges]”, the “antimicrobial activity compared with hBD-3” value in [5] (2 mM DTT) was “as effective as hBD-3”. The antimicrobial activity entry in series [5] (in the presence of 150 mM sodium chloride (data not shown)) is “disappeared”. For the same substance, the “antimicrobial activity (diameter of the inhibition zones)” value in [5] (medium with 1 mM DTT) is on record as “concentration-dependent inhibition zones”; in series [5] (medium without DTT) it was “no effect on the growth”; in [5] (setting [9]), “antimicrobial activity only through reduction”. Further, the “antimicrobial activity (inhibition zones)” value in the series on Bacteroides vulgatus (setting [10]) was “did not show any antimicrobial activity; also recorded: growth-inhibiting effect was not observed”. The “transformation of oxidized to reduced hBD-1” value with human thioredoxin is recorded as “reduced by thioredoxin”.

Regarding “reduced hBD-1: fully reduced, linear hBD-1 with free cysteine residues (DHYNCVSSGGQCLYSACPIFTKIQGTCYRGKAKCCK; Beta-defensin 1 reduced, free cysteines; UniProt P60022 33-68, looked up)”, the “antimicrobial activity (inhibition zones)” value with Bacteroides vulgatus (setting [7]) is on record as “no effect”; in series [1] it was “antimicrobial activity against all the strains tested”; in series [2], “clear inhibition zones”; in the series with Escherichia coli K12 it was “antimicrobial activity”. Besides, the “antifungal activity (proportion of depolarized yeasts)” value with Candida albicans is on record as “active against 4 out of 5 clinical Candida isolates; also recorded: effective antifungal activity against four out of five strains”. In [3] (setting [8]), the “membrane depolarization of the bacteria” value is given as 50%. Besides, the “effectiveness compared with the oxidized form” value in [3] (flow cytometry, membrane depolarization) is “more effective”. In series [4], the “morphology of the bacterial cells” value is given as “cellular disintegration”. The “hydrophobicity (RP-HPLC)” value in series [6] is listed as “more hydrophobic; also recorded: increase in the hydrophobicity”.

As to “hBD-1Δ30-36: shortened variant of hBD-1 without the seven C-terminal amino acids GKAKCCK (SEQ ID No. 1) (DHYNCVSSGGQCLYSACPIFTKIQGTCYR; ends and bridges not checked; cysteine pairing not given here; UniProt P60022 33-61, looked up, fragment)”, the “antimicrobial activity (diameter of the inhibition zones)” value in series [5] (medium without DTT) and in [5] (setting [9]) was “unable to inhibit the growth” each time.

With “human beta-defensin 3 (GIINTLQKYYCRVRGGRCAVLSCLPKEEQIGKCSTRGRKCCRRKK; UniProt P81534 23-67, looked up) [hBD-3, reference compound]”, the “antimicrobial activity (diameter of the inhibition zones)” value is “strong antimicrobial activity” in series [5] (medium without DTT) and “slightly reduced antimicrobial activity; also recorded: reduced activity” in [5] (setting [9]). Also, the “antimicrobial activity (inhibition zones)” value with Bacteroides vulgatus (setting [10]) was “concentration-dependent inhibition zones”. In addition, in series [4], the “morphology of the bacterial cells” value is given as “mainly attacks the bacterial membrane”.
